# Results from patent US4268630A, “Microbiological production of ketones from C3 -C6 alkanes” (priority 1979, dated 1981).
# Legend:
# [1] = tested on: Torulopsis sp. Strain A1 (NRRL Y-11,419); assay: Oxidation of sec-alcohols to ketones by cell suspensions of yeasts; assay type: cell-based
# [2] = tested on: cell-free soluble extract of Methylococcus capsulatus CRL M1 (NRRL B-11,219); assay: Oxidation of secondary alcohols by cell-free soluble extract (NAD added); assay type: biochemical; settings: soluble crude extract, grown on methanol
# Protocol: To prepare the cell-free secondary alcohol dehydrogenase (SADH) system, the washed cells were disrupted with a Wave Energy Ultrasonic Oscillator, Model W201 (Wave Energy System, Inc., Newtown, Pa.) and centrifuged at 20,000× g. for 30 minutes. […] The enzyme activity was measured with a fluorescence spectrophotometer (Perkin Elmer, Model MPF 44A) by following the formation of reduced NAD (EX 340 nm, Em 460 nm). The formation of reduced NAD was also followed with an absorption spectrophotometer at 340 nm. The assay system (3 ml.) contained: potassium phosphate buffer pH 7.0; 150 μmol.; NAD 1 μmol.; a given amount of enzyme preparation; and secondary alcohol 10 μmol. The reaction was started by the addition of substrate. One unit of enzyme activity represents the reduction of one μmole NAD per minute. Protein concentrations were determined by the Lowry method (J. Biol. Chem., 193: 255-275 (1951)).
# The experimental procedure for the tests reported in Table VIII were as follows: 1 mg protein of crude extract was added into a 0.5 ml. 0.05 M phosphate buffer (pH 7.0) in a 10-ml. vial. […] The reaction mixture was incubated at 30° C. on a water bath. A 3 μl sample was removed with a syringe at 15 min. of incubation and was assayed with g.l.c. Catalytic activity was also assayed by fluorescence spectrophotometry.
# [3] = tested on: Pichia sp. NRRL-Y-11328; assay: Oxidation of sec-alcohols to ketones by cell suspensions of yeasts; assay type: cell-based
# [4] = tested on: Pseudomonas sp. ATCC 21439; assay: Oxidation of sec-alcohols to ketones by resting cell suspension; assay type: cell-based; settings: methanol-grown, obligate
# Protocol: (§1) The pH of the nutrient medium was adjusted to 7.0 by the addition of acid or base and 50 ml. samples of the nutrient medium were charged into a plurality of 300 ml. shaker flasks. The shaker flasks were inoculated with an inoculating loop of cells from an agar plate containing homogeneous colonies of the microorganisms on the plate (the purity of the isolates was confirmed by microscopic examination). The isolates had been maintained on methanol (0.4% V/V) agar plates or on agar plates under an atmosphere of methane and air having a 1:1 V/V gas ratio which had been transferred every two weeks. For growth on methanol, the medium was supplemented with 0.4% methanol. For growth on methane, the gaseous phase of the inoculated flasks was replaced with a gas mixture comprised on methane and air having a ratio of 1:1 on a V/V basis. The inoculated flasks were sealed air-tight and were incubated on a rotary shaker of orbital radius 2.5 cm. at 250 rpm and at 30° C. for two days until turbidity in the medium had developed. The cells were harvested by centrifugation at 10,000×g. at 4° C. for 30 minutes. The cell pellet was washed twice with a 0.05 M phosphate buffer at a pH of 7.0 (containing 0.02 M MgCl2). The washed cells were then suspended in a 0.05 M phosphate buffer at pH 7.0.
# (§2) A 0.5 ml. sample of each washed cell suspension (2 mg. cells) was put into 10 ml. vials at 4° C. which were sealed with a rubber cap. The gaseous phase of the vials was removed with vacuum and then was replaced with a gas mixture of the substrate reactant (i.e., alkane or secondary alcohol) and oxygen at a 1:1 V/V ratio. (In the case of a liquid substrate, i.e., secondary alcohol, 10 μl of the substrate was put in the 10 ml. vials). […] Samples of product (1-3 μl) were withdrawn periodically with a microsyringe and the products were analyzed by gas chromatography (ionization flame detector column).
# (§3) The procedure in Example 1 was repeated except that a plurality of methanol-utilizing methylotrophic microorganisms were each aerobically grown in a methanol-containing nutrient medium instead of a methane-containing medium. The nutrients in the medium were the same as indicated in Example 1 except that 0.4% V/V methanol was used as the alcohol dehydrogenase inducer and as the major carbon and energy source for growth. The cells were harvested and washed as described in Example 1. The resting microbial cells of the induced methanol-grown methanol-utilizing methylotrophic microorganisms were then contacted with C3 -C6 secondary alcohols in a buffered solution by the procedure of Example 1.
# [5] = tested on: Pseudomonas MS ATCC 25262; assay: as above; assay type: cell-based; settings: methanol-grown, facultative
# Protocol: as §1, §2, §3
# [6] = tested on: cell extracts of Candida utilis ATCC 26,387; assay: NAD+-dependent oxidation of secondary alcohols by cell extracts of yeasts; assay type: biochemical; settings: cell extracts, grown on methanol, NAD+; gas chromatography
# [7] = tested on: Methylomonas methanica S1 (NRRL B-11,199); assay: Oxidation of sec-alcohols to ketones by resting cell suspension; assay type: cell-based
# Protocol: as §1, §2
# (§4) The procedure in Example 1 was repeated wherein a plurality of the methane-utilizing methylotrophic microorganisms were each grown aerobically in a nutrient medium containing methane as the alcohol dehydrogenase enzyme inducer and as the major carbon and energy source for growth. The cells were harvested and washed as described in Example 1. The resting microbial cells of the induced methane-grown methane-utilizing methylotrophic microorganisms were then contacted with C3 -C6 secondary alcohols in a buffered solution by the procedure of Example 1.
# (§5) In this example, the procedure in Example 1 was repeated except that a plurality of methane-utilizing methylotrophic microorganisms were each aerobically grown in a methanol-containing nutrient medium instead of a methane-containing medium. The nutrients in the medium were the same as indicated in Example 1 except that 0.4% V/V methanol was used as the alcohol dehydrogenase inducer and major source of carbon and energy for growth. Following growth, the cells were harvested and washed as described in Example 1. The resting cells of the induced methanol-grown methylotrophic microorganisms were then contacted with secondary alcohols in a buffered solution by the procedure described in Example 1.
# [8] = tested on: Methylocystis parvus OBBP (NRRL B-11,198); assay: as above; assay type: cell-based
# Protocol: as §1, §2, §4, §5
# [9] = tested on: Methylococcus capsulatus, Texas (ATCC 19069); assay: as above; assay type: cell-based
# Protocol: as §1, §2, §4, §5
# [10] = tested on: Methylobacter capsulatus Y (NRRL B-11,201); assay: as above; assay type: cell-based
# Protocol: as §1, §2, §4, §5
# [11] = tested on: cell extracts of Hansenula polymorpha ATCC 26,012; assay: NAD+-dependent oxidation of secondary alcohols by cell extracts of yeasts; assay type: biochemical; settings: cell extracts, grown on methanol, NAD+; gas chromatography
# [12] = tested on: Kloeckera sp. Strain A2 (NRRL Y-11,420); assay: Oxidation of sec-alcohols to ketones by cell suspensions of yeasts; assay type: cell-based
smiles,measurement,setting,value
"CCCC(C)O (stereo not shown) [2-Pentanol, 2-pentanol]","Conversion Rate, sec-alcohol to ketone",[1]; growth substrate Ethanol,1.2 μmoles/hr/mg of protein
same,"Conversion Rate, sec-alcohol to ketone",[1]; growth substrate Methanol,1.0 μmoles/hr/mg of protein
same,"Conversion Rate, sec-alcohol to ketone",[1]; growth substrate Methylamine,0.9 μmoles/hr/mg of protein
same,"Conversion Rate, sec-alcohol to ketone",[1]; growth substrate Methylformate,1.1 μmoles/hr/mg of protein
same,"Conversion Rate, sec-alcohol to ketone",[1]; growth substrate Propylamine,0.62 μmoles/hr/mg of protein
same,"Oxidation Rate, sec-alcohol to methyl ketone",[2],0.1 nmole/min/mg protein
same,"Conversion Rate, sec-alcohol to ketone",[3]; growth substrate Ethanol,1.0 μmoles/hr/mg of protein
same,"Conversion Rate, sec-alcohol to ketone",[3]; growth substrate Methanol,1.2 μmoles/hr/mg of protein
same,"Conversion Rate, sec-alcohol to ketone",[3]; growth substrate Methylamine,0.72 μmoles/hr/mg of protein
same,"Conversion Rate, sec-alcohol to ketone",[3]; growth substrate Methylformate,0.98 μmoles/hr/mg of protein
same,"Conversion Rate, sec-alcohol to ketone",[3]; growth substrate Propylamine,0.60 μmoles/hr/mg of protein
same,"Conversion Rates, sec-alcohol to methyl ketone",[4],0.05 μmoles/hr/mg protein
same,"Conversion Rates, sec-alcohol to methyl ketone",[5],2.1 μmoles/hr/mg protein
same,"Conversion Rate, secondary alcohol to methylketone",[6],0.82 μmoles/hr/mg Protein
same,"Conversion Rates, sec-alcohol to methyl ketone",[7]; cells grown on methanol,0.45 μmoles/hr/mg protein
same,"Conversion Rates, sec-alcohol to methyl ketone",[7]; resting cells grown on methane,0.25 μmoles/hr/mg protein
same,"Conversion Rates, sec-alcohol to methyl ketone",[8]; cells grown on methanol,0.82 μmoles/hr/mg protein
same,"Conversion Rates, sec-alcohol to methyl ketone",[8]; resting cells grown on methane,0.80 μmoles/hr/mg protein
same,"Conversion Rates, sec-alcohol to methyl ketone",[9]; cells grown on methanol,3.5 μmoles/hr/mg protein
same,"Conversion Rates, sec-alcohol to methyl ketone",[9]; resting cells grown on methane,2.5 μmoles/hr/mg protein
same,"Conversion Rates, sec-alcohol to methyl ketone",[10]; cells grown on methanol,0.60 μmoles/hr/mg protein
same,"Conversion Rates, sec-alcohol to methyl ketone",[10]; resting cells grown on methane,0.5 μmoles/hr/mg protein
same,"Conversion Rate, secondary alcohol to methylketone",[11],1.0 μmoles/hr/mg Protein
same,"Conversion Rate, sec-alcohol to ketone",[12]; growth substrate Ethanol,1.0 μmoles/hr/mg of protein
same,"Conversion Rate, sec-alcohol to ketone",[12]; growth substrate Methanol,1.2 μmoles/hr/mg of protein
same,"Conversion Rate, sec-alcohol to ketone",[12]; growth substrate Methylamine,1.0 μmoles/hr/mg of protein
same,"Conversion Rate, sec-alcohol to ketone",[12]; growth substrate Methylformate,1.2 μmoles/hr/mg of protein
same,"Conversion Rate, sec-alcohol to ketone",[12]; growth substrate Propylamine,0.92 μmoles/hr/mg of protein
